Assay [1] concerns the target T1, Human Liver Cathepsin B (Homo sapiens, UniProt P07858).
T1 construct: from tissue; host or cells: human liver
The assay can be described thus: Biochemical assay of inhibition of Cathepsin B enzymatic activity. The following applies: 20 uM Boc-Leu-Arg-Arg-AMC, pH 5.5, 15 minutes preincubation, 30 minutes at 25° C. How it is done:
The test compound of Formula (I) was dissolved in dimethylsulfoxide (DMSO) and diluted in assay buffer. An 8 point dose response curve was completed in order to evaluate the IC50 value of inhibition of Cathepsin B enzymatic activity (IC50 is defined as the concentration which inhibited 50% of maximal enzyme activity). The assay protocol was adapted from Barrett, 1980. Human Liver Cathepsin B was incubated in assay buffer (50 mM sodium acetate, pH 5.5, 1 mM dithiothreitol (DTT), 2 mM ethylenediaminetetraacetic acid (EDTA) with 20 uM peptide substrate (Boc-Leu-Arg-Arg-AMC) with the compounds diluted from DMSO stocks or DMSO vehicle alone. Final DMSO concentration was retained at 1% in the assay. The test compound was preincubated with the enzyme for 15 minutes at 25° C. Reaction was started with the addition of substrate, and allowed to proceed for 30 minutes at 25° C. Substrate cleavage was monitored with spectrofluorimetric quantitation of methylcoumarylamide (AMC).

Assay [2] addresses T2, Cathepsin B in human cells (HUVECs) (Homo sapiens, UniProt P07858).
T2 construct: endogenous in cells; host or cells: HUVEC (human umbilical vein endothelial cells)
Put plainly: Cellular activity-based probe (whole-cell enzyme occupancy) assay. The following applies: serum-free media, 4 hours compound treatment, 125I-DMK probe 1 hour. How it is done: Activity of Cathepsin B in cells was measured with the use of an activity-based radioactive probe in a whole-cell enzyme occupancy assay. This method was used to determine the specific potencies of compounds on Cathepsin B in the intracellular environment. The probe used was a peptide diazomethylketone which binds to Cathepsins, including Cathepsin B, potently and irreversibly. This cell-permeable probe binds to active Cathepsin B and binding can be quantified to determine the level of Cathepsin B activity in cells. Cathepsin B enzyme in cells which has bound to an inhibitor is not active and as such not available for binding by the activity-based probe.
The method used was based on a modification of a published method (Falgueyret J-P, et al. 2004. Anal. Biochem. 335:218-227). Human umbilical vein endothelial cells (HUVECs) were grown in 24 well plates in standard growth conditions. […]
To analyze probe-labeled proteins, samples were boiled for 5 minutes and analyzed by SDS-PAGE. […] The band intensities on the autoradiographs were determined. Autoradiographs were scanned using a Microtek ScanMakeri900 scanner and bands quantified with a program such as the BioRad Imaging program QuantityOne or ImageJ. Compound potencies were calculated as a % of the no inhibitor control and IC50 values were extrapolated from the dose-response curves using a suitable program like GraphPad Prism.

For assay [3], the system named is Liver fibrosis induced in mice by carbon tetrachloride. The assay can be described thus: Carbon tetrachloride-induced liver fibrosis model. Type of assay: in vivo. Particulars: CCl4 fibrosis, once daily from day 12, 250 mg/kg and 50 mg/kg, terminal day 33. How it is done: Liver fibrosis was induced in mice by intraperitoneal administration of carbon tetrachloride every 5 days over a 28-day period (days 0-28). On day 11, plasma alanine aminotransferase (ALT) levels and aspertate aminotransferase (AST) were measured from representative mice to confirm liver damage. (2S,4R)-1-((S)-(3-tert-butylureido)-3,3-dimethylbutanoyl]-N-((S)-1-cyclopropylamino)-1,2-dioxohexan-3-yl)-4-(7-methoxy-2-(1H-pyrazol-1-yl)-quinolin-4-yloxy)pyrrolidine-2-carboxamide was administered therapeutically, once daily, starting on day 12, […]. On day 33, terminal plasma AST and ALT, liver hydroxyproline, PK/PD, and histology were assessed.

Data on 14 compounds can be found in patent US8211897B2, “Inhibitors of cathepsin B” (ViroBay, Inc., priority 2008, dated 2012).

As a reminder, the IC50 is the point on the concentration scale where inhibition reaches its midpoint.

Molecules are shown by their SMILES. Bounds are passed on as bounds.

As for `CCC[C@H](NC(=O)[C@@H]1CC(Oc2cc(-c3ccccn3)nc3ccsc23)CN1C(=O)[C@@H](NC(=O)NC(C)(C)C)C(C)(C)C)C(=O)C(=O)NC1CC1` (stereo partly shown), in assay [1], the IC50 stood at 86 nM.

Consider `CCC[C@H](NC(=O)[C@@H]1CC(Oc2cc(-n3cccn3)nc3cc(OC)ccc23)CN1C(=O)[C@@H](NC(=O)NCC1CC1)C(C)(C)C)C(=O)C(=O)NC1CC1` (stereo partly shown), for which 83 nM corresponded to half-maximal inhibition in assay [1] (IC50).

Compound `CCC[C@H](NC(=O)[C@@H]1C[C@@H](Oc2cc(-n3cccn3)nc3cc(OC)ccc23)CN1C(=O)[C@@H](NC(=O)NCC(C)(C)C)C(C)(C)C)C(=O)C(=O)NC1CC1` [(2S,4R)-N-((S)-1-(cyclopropylamino)-1,2-dioxohexan-3-yl)-1-((S)-3,3-dimethyl-2-(3-neopentylureido)butanoyl)-4-(7-methoxy-2-(1H-pyrazol-1-yl)quinolin-4-yloxy)pyrrolidine-2-carboxamide] displayed an IC50 in assay [1] of 61 nM.

In turn, `CCC[C@H](NC(=O)[C@@H]1CC(Oc2cc(-n3cccn3)nc3cc(OC)ccc23)CN1C(=O)[C@@H](NC(=O)NC(C)(C)C)C(C)(C)C)C(=O)C(=O)NC1CC1` (stereo partly shown) [Example 1] came in with an IC50 in assay [1] of less than 500 nM. This compound also registered an IC50 in assay [2] of 24 nM. Further, in assay [3], the liver hydroxyproline entry is reported as “decreased”, the “plasma ALT” value is reported as “decreased” and the “plasma AST” value is on record as “decreased”.

For `COc1ccc2c(O[C@@H]3C[C@@H](C(=O)N[C@@H](CC4CCC4)C(=O)C(=O)NC4CC4)N(C(=O)[C@@H](NC(=O)NC(C)(C)C)C(C)(C)C)C3)cc(-n3cccn3)nc2c1` [Example 2, (2S,4R)-1-((S)-(3-tert-butylureido)-3,3-dimethylbutanoyl]-N-((S)-1-cyclobutyl-4-(cyclopropylamino)-3,4-dioxobutan-2-yl)-4-(7-methoxy-2-(1H-pyrazol-1-yl)-quinolin-4-yloxy)pyrrolidine-2-carboxamide], in assay [1], the half-inhibitory concentration (IC50) is less than 500 nM. Half-maximal inhibition in assay [2] (IC50) required 19 nM. Moreover, in assay [3], the liver hydroxyproline result is “reduces”, the “plasma ALT” value is listed as “reduces” and the “plasma AST” value is given as “reduces”.

`CCC[C@H](NC(=O)[C@@H]1C[C@@H](Oc2nccc3cc(OC)ccc23)CN1C(=O)[C@@H](NC(=O)NC(C)(C)C)C(C)(C)C)C(=O)C(=O)NC1CC1` [Example 9] displayed an IC50 in assay [1] of 27 nM.

Compound `COc1ccc2c(O[C@@H]3C[C@@H](C(=O)N[C@@H](CC4CC4)C(=O)C(=O)NC4CC4)N(C(=O)[C@@H](NC(=O)NC(C)(C)C)C(C)(C)C)C3)nccc2c1` [Example 10, (2S,4R)-1-((S)-2-(3-tert-Butylureido)-3,3-dimethylbutanoyl)-N-((S)-1-cyclopropyl-4-(cyclopropylamino)-3,4-dioxobutan-2-yl)-4-(6-methoxyisoquinolin-1-yloxy)-pyrrolidine-2-carboxamide] registered an IC50 in assay [1] of 56 nM.

Take `CCOc1ccc2c(O[C@@H]3C[C@@H](C(=O)N[C@@H](CC4CC4)C(=O)C(=O)NC4CC4)N(C(=O)[C@@H](NC(=O)NC(C)(C)C)C(C)(C)C)C3)nccc2c1` [Example 11, (2S,4R)-1-((S)-2-(3-tert-Butylureido)-3,3-dimethylbutanoyl)-N-((S)-1-cyclopropyl-4-(cyclopropylamino)-3,4-dioxobutan-2-yl)-4-(6-ethoxyisoquinolin-1-yloxy)-pyrrolidine-2-carboxamide]: the IC50 in assay [1] turned out to be 49 nM.

In the case of `CCC[C@H](NC(=O)[C@@H]1C[C@@H](Oc2nccc3cc(OCC)ccc23)CN1C(=O)[C@@H](NC(=O)NC(C)(C)C)C(C)(C)C)C(=O)C(=O)NC1CC1` [Example 12, (2S,4R)-1-((S)-2-(3-tert-Butylureido)-3,3-dimethylbutanoyl)-N-((S)-1-(cyclopropylamino)-1,2-dioxohexan-3-yl)-4-(6-ethoxyisoquinolin-1-yloxy)-pyrrolidine-2-carboxamide], the IC50 in assay [1] amounted to 45 nM.

In assay [1], `CCCC[C@H](NC(=O)[C@@H]1CC(Oc2nccc3cc(OC)ccc23)CN1C(=O)[C@@H](NC(=O)NC(C)(C)C)C(C)(C)C)C(=O)C(=O)NC1CC1` (stereo partly shown) [Example 13] showed an IC50 of 28 nM.

`CCC[C@H](NC(=O)[C@@H]1C[C@@H](Oc2nc(C)cc3cc(OC)ccc23)CN1C(=O)[C@@H](NC(=O)NC(C)(C)C)C(C)(C)C)C(=O)C(=O)NC1CC1` [Example 15, (2S,4R)-1-((S)-2-(3-tert-butylureido)-3,3-dimethylbutanoyl)-N-((S)-1-(cyclopropylamino)-1,2-dioxohexan-3-yl)-4-(6-methoxy-3-methylisoquinolin-1-yloxy)pyrrolidine-2-carboxamide] displayed an IC50 in assay [1] of 32 nM.

In turn, `CCC[C@H](NC(=O)[C@@H]1C[C@@H](Oc2nc(-c3ccccn3)nc3sccc23)CN1C(=O)[C@@H](NC(=O)NC(C)(C)C)C(C)(C)C)C(=O)C(=O)NC1CC1` [Example 16, (2S,4R)-1-((S)-2-(3-tert-butylureido)-3,3-dimethylbutanoyl)-N-((S)-1-(cyclopropylamino)-1,2-dioxohexan-3-yl)-4-(2-(pyridin-2-yl)thieno[2,3-d]pyrimidin-4-yloxy)pyrrolidine-2-carboxamide] displayed an IC50 in assay [1] of 45 nM.

`CCC[C@H](NC(=O)[C@@H]1C[C@@H](Oc2nc(-c3ccccn3)nc3ccsc23)CN1C(=O)[C@@H](NC(=O)NC(C)(C)C)C(C)(C)C)C(=O)C(=O)NC1CC1` [Example 17, (2S,4R)-1-((S)-2-(3-tert-butylureido)-3,3-dimethylbutanoyl)-N-((S)-1-(cyclopropylamino)-1,2-dioxohexan-3-yl)-4-(2-(pyridin-2-yl)thieno[3,2-d]pyrimidin-4-yloxy)pyrrolidine-2-carboxamide] gave an IC50 in assay [1] of 33 nM. The IC50 values of the last two compounds are within 1.5-fold of each other.

In assay [1], `CCC[C@H](NC(=O)[C@@H]1C[C@@H](Oc2nc(-c3cc(C)nn3C)nc3ccsc23)CN1C(=O)[C@@H](NC(=O)NC(C)(C)C)C(C)(C)C)C(=O)C(=O)NC1CC1` [Example 18, (2S,4R)-1-((S)-2-(3-tert-butylureido)-3,3-dimethylbutanoyl)-N-((S)-1-(cyclopropylamino)-1,2-dioxohexan-3-yl)-4-(2-(1,3-dimethyl-1H-pyrazol-5-yl)thieno[3,2-d]pyrimidin-4-yloxy)pyrrolidine-2-carboxamide] returned an IC50 of 72 nM.
